Like-named read-outs stand apart in the source and are kept apart here.
How the values were obtained:
[1] = biological target: HDAC2 (Homo sapiens, UniProt Q92769); experiment: HDAC biochemical activity measurement (fluorescent substrate deacetylation);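 note: HDAC2 enzyme with an acetyl-lysine fluorescent substrate, then developer added, fluorescence read at excitation 360 nm and emission 460 nm, inhibition measured across several compound concentrations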; settings: 37° C. 30 minutes
Description: The chemical activity of the compound is determined according to the degree of deacetylation inhibition of the HDAC enzyme. This experiment measured the degree of deacetylation related to tumor proliferation and metastasis of HDAC1, HDAC2, HDAC3, HDAC8, HDAC11 five subtypes HDAC enzymes. After the substrate containing an acetylated lysine side chain and HDAC enzyme are labeled with a fluorescent label, the fluorescent substrate is de acetyl. The fluorescent labeled substrate is cleaved by the enzyme, and the fluorescent substance is released, which generates 460 nm emission light under the excitation of 360 nm light.
HDAC substrate was diluted with reaction buffer to 200M (reaction concentration of 20M), the HDAC enzyme was diluted to the appropriate concentration, then added different concentrations of the test compounds and acted at 37° C. 30 minutes, and then added the same volume of 2-times concentration substrate developing solution (developer), incubated at room temperature for 15 minutes.

[2] = tested on: A549 (human lung cancer cells); experiment: MTT cancer cell growth inhibition; format: cell-based; settings: Homo sapiens, A549, 72 h, MTT
Summary of the method: (§1)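 Growth inhibition is scored with MTT after three days of compound treatment spanning 10^−5–10^−10 M. Cells are maintained in DMEM or 1640 medium containing 10% FBS and plated at 1500 per well the previous night; absorbance at 570 nm gives viability, from which GI50 is calculated.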

[3] = tested on: BGC-823 (human gastric cancer cells); experiment: MTT cancer cell growth inhibition; format: cell-based; settings: Homo sapiens, BGC-823, 72 h, MTT
Summary of the method: as §1

[4] = tested on: Bel-7402 (human hepatoma cells); experiment: MTT cancer cell growth inhibition; format: cell-based; settings: Homo sapiens, Bel-7402, 72 h, MTT, 72 hours incubation, Bel-7402 cells; read-out: GI50 Bel-7402
Summary of the method: as §1

[5] = tested on: DU145 (human prostate cancer cells); experiment: MTT cancer cell growth inhibition; format: cell-based; settings: Homo sapiens, DU-145, 72 h, MTT
Summary of the method: as §1

[6] = tested on: H1975 (non-small cell lung adenocarcinoma); experiment: MTT cancer cell growth inhibition; format: cell-based; settings: Homo sapiens, NCI-H1975, 72 h, MTT, 72 hours incubation, H1975 cells; read-out: GI50 H1975
Summary of the method: as §1

[7] = tested on: HCC827 (human non-small cell lung cancer cells); experiment: MTT cancer cell growth inhibition; format: cell-based; settings: Homo sapiens, HCC827, 72 h, MTT, 72 hours incubation, HCC827 cells; read-out: GI50 HCC827
Summary of the method: as §1

[8] = tested on: HT1080 (human fibrosarcoma cells); experiment: MTT cancer cell growth inhibition; format: cell-based; settings: Homo sapiens, HT-1080, 72 h, MTT
Summary of the method: as §1

[9] = tested on: Hela (human cervical cancer cells); experiment: MTT cancer cell growth inhibition; format: cell-based; settings: Homo sapiens, HeLa, 72 h, MTT
Summary of the method: as §1

[10] = tested on: Huh-7 (human hepatoma cells); experiment: MTT cancer cell growth inhibition; format: cell-based; settings: Homo sapiens, Huh-7, 72 h, MTT, 72 hours incubation, Huh-7 cells; read-out: GI50 Huh-7
Summary of the method: as §1

[11] = tested on: K562 (human leukemia cells); experiment: MTT cancer cell growth inhibition; format: cell-based; settings: Homo sapiens, K562, 72 h, MTT, 72 hours incubation, K562 cells; read-out: GI50 K562
Summary of the method: as §1

[12] = tested on: KBM-5 (human chronic myelogenous leukemia); experiment: MTT cancer cell growth inhibition; format: cell-based; settings: Homo sapiens, KBM5, 72 h, MTT, 72 hours incubation, KBM-5 cells; read-out: GI50 KBM-5
Summary of the method: as §1

[13] = tested on: KBM5-T315I (human chronic myelogenous leukemia); experiment: MTT cancer cell growth inhibition; format: cell-based; settings: Homo sapiens, 72 h, MTT, 72 hours incubation, KBM5-T315I cells; read-out: GI50 KBM5-T315I
Summary of the method: as §1

[14] = tested on: MCF-7 (human breast cancer cells); experiment: MTT cancer cell growth inhibition; format: cell-based; settings: Homo sapiens, MCF7, 72 h
Summary of the method: as §1

[15] = tested on: MDA-MB-231 (breast cancer cells); experiment: MTT cancer cell growth inhibition; format: cell-based; settings: Homo sapiens, MDA-MB-231, 72 h, read-out: GI50 MDA-MB-231, MTT, 72 hours incubation, MDA-MB-231 cells
Summary of the method: as §1

[16] = tested on: MOLT-4 (human acute lymphoblastic leukemia cells); experiment: MTT cancer cell growth inhibition; format: cell-based; settings: Homo sapiens, MOLT-4, 72 h, MTT
Summary of the method: as §1

[17] = tested on: N-87 (human gastric cancer cells); experiment: MTT cancer cell growth inhibition; format: cell-based; settings: Homo sapiens, 72 h, MTT, 72 hours incubation, N-87 cells; read-out: GI50 N-87
Summary of the method: as §1

[18] = tested on: PANC-1 (Pac-1, human pancreatic cancer cells); experiment: MTT cancer cell growth inhibition; format: cell-based; settings: Homo sapiens, PANC-1, 72 h, MTT
Summary of the method: as §1

[19] = tested on: SGC-7901 (human gastric cancer cells); experiment: MTT cancer cell growth inhibition; format: cell-based; settings: Homo sapiens, SGC-7901, 72 h, MTT, 72 hours incubation, SGC-7901 cells; read-out: GI50 SGC-7901
Summary of the method: as §1

[20] = tested on: U937 (human leukemia cells); experiment: MTT cancer cell growth inhibition; format: cell-based; settings: Homo sapiens, U-937, 72 h, MTT
Summary of the method: as §1

[21] = tested on: lncap (prostate cancer cells); experiment: MTT cancer cell growth inhibition; format: cell-based; settings: Homo sapiens, LNCaP, 72 h, MTT
Summary of the method: as §1

[22] = A549 cells, 72 hours incubation, read-out: GI50 A54
[23] = 72 hours, present invention, read-out: GI50 A549, a
[24] = BGC-823 cells, 72 hours incubation, read-out: GI50 BG
[25] = 72 hours, present invention, read-out: GI50 BGC823, a
[26] = DU145 cells, 72 hours incubation, read-out: GI50 Du1
[27] = 72 hours, present invention, read-out: GI50 Du145, a
[28] = HT1080 cells, 72 hours incubation, read-out: GI50 HT1
[29] = 72 hours, present invention, read-out: GI50 HT1080, a
[30] = Hela cells, 72 hours incubation, read-out: GI50 Hela
[31] = 72 hours, present invention, read-out: GI50 Hela, a
[32] = 72 hours, present invention, read-out: GI50 MCF7, a
[33] = MCF-7 cells, 72 hours incubation, read-out: GI50 MCF
[34] = MOLT-4 cells, 72 hours incubation, read-out: GI50 Mol
[35] = 72 hours, present invention, read-out: GI50 Molt-4, a
[36] = 72 hours, present invention, read-out: GI50 PANC-1, a
[37] = PANC-1 cells, 72 hours incubation, read-out: GI50 PAN
[38] = 72 hours, present invention, read-out: GI50 U937, a
[39] = U937 cells, 72 hours incubation, read-out: GI50 U93
[40] = 72 hours, present invention, read-out: GI50 lncap, a
[41] = lncap cells, 72 hours incubation, read-out: GI50 lnca
[42] = 72 hours incubation, read-out: GI50 A54
[43] = 72 hours incubation, read-out: GI50 BG
[44] = 72 hours incubation, read-out: GI50 Du1
[45] = 72 hours incubation, read-out: GI50 HT1
[46] = 72 hours incubation, read-out: GI50 Hela
[47] = 72 hours incubation, read-out: GI50 MCF
[48] = 72 hours incubation, read-out: GI50 Mol
[49] = 72 hours incubation, read-out: GI50 PAN
[50] = 72 hours incubation, read-out: GI50 U93
[51] = 72 hours incubation, read-out: GI50 lnca

HDAC2, sequence (Q92769 whole entry, species assumed): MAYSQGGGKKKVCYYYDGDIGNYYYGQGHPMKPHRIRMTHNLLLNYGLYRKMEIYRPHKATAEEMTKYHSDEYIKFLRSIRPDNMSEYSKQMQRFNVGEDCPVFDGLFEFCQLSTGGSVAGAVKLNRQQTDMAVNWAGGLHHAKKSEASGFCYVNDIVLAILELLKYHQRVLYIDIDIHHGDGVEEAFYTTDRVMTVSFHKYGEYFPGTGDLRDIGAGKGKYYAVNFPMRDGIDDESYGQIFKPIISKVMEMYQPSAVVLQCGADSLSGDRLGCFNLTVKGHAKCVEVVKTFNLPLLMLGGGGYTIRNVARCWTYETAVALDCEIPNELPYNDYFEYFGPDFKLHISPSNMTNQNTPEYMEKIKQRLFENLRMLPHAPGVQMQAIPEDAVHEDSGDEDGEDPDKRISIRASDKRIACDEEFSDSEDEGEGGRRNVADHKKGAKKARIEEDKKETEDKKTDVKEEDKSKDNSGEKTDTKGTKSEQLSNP

In the case of `C/C=C1\NC(=O)c2cccc(n2)CNC(=O)C[C@@H](/C=C/CCSC(=O)CCCCCCC)OC(=O)CNC1=O` [Compound 235], the IC50 [1] is reported as 0.019 µM, the GI50 [2, 22] is reported as 0.03 µM and the GI50 [2, 23] is reported as 0.034 µM. The GI50 [3, 24] was 0.04 µM, the GI50 [3, 25] was 0.043 µM and the GI50 [4] was 0.091 µM. It also gave a GI50 [5, 26] of 0.03 µM, a GI50 [5, 27] of 0.003 µM and a GI50 [6] of 0.063 µM. The GI50 [7] was 0.085 µM, the GI50 [8, 28] was 0.02 µM and the GI50 [8, 29] was 0.024 µM. For the same compound, the GI50 [9, 30] was 0.04 µM, the GI50 [9, 31] was 0.047 µM and the GI50 [10] was 0.038 µM. It also gave a GI50 [11] of 0.042 µM, a GI50 [12] of 0.027 µM and a GI50 [13] of 0.092 µM. The GI50 [14, 32] was 0.056 µM, the GI50 [14, 33] was 0.05 µM and the GI50 [15] was 0.045 µM. For the same compound, the GI50 [16, 34] was 0.07 µM, the GI50 [16, 35] was 0.007 µM and the GI50 [17] was 0.063 µM. The GI50 [18, 36] was 0.23 µM, the GI50 [18, 37] was 0.23 µM and the GI50 [19] was 0.042 µM. It also gave a GI50 [20, 38] of 0.006 µM, a GI50 [20, 39] of 0.06 µM and a GI50 [21, 40] of 0.04 µM. It also gave a GI50 [21, 41] of 0.04 µM.
`C/C=C1\NC(=O)c2cccc(n2)CNC(=O)C[C@@H](/C=C/CCSC(=O)CCCCCCC)OC(=O)[C@H](C(C)(C)C)NC1=O` [Compound 237] showed an IC50 [1] of 0.032 µM, a GI50 [2, 22] of 0.42 µM and a GI50 [2, 23] of 0.42 µM. It also gave a GI50 [3, 24] of 0.17 µM, a GI50 [3, 25] of 0.17 µM and a GI50 [4] of 0.042 µM. For the same compound, the GI50 [5, 26] was 0.04 µM, the GI50 [5, 27] was 0.04 µM and the GI50 [6] was 0.083 µM. It also gave a GI50 [7] of 0.025 µM, a GI50 [8, 28] of 0.99 µM and a GI50 [8, 29] of 0.99 µM. For the same compound, the GI50 [9, 30] was 0.88 µM, the GI50 [9, 31] was 0.88 µM and the GI50 [10] was 0.049 µM. The GI50 [11] was 0.069 µM, the GI50 [12] was 0.049 µM and the GI50 [13] was 0.087 µM. For the same compound, the GI50 [14, 32] was 0.35 µM, the GI50 [14, 33] was 0.35 µM and the GI50 [15] was 0.012 µM. For the same compound, the GI50 [16, 34] was 0.97 µM, the GI50 [16, 35] was 0.97 µM and the GI50 [17] was 0.058 µM. The GI50 [18, 36] was 0.93 µM, the GI50 [18, 37] was 0.93 µM and the GI50 [19] was 0.033 µM. It also gave a GI50 [20, 38] of 0.11 µM, a GI50 [20, 39] of 0.11 µM and a GI50 [21, 40] of 0.94 µM. For the same compound, the GI50 [21, 41] was 0.94 µM.
Work on `C/C=C1\NC(=O)c2ccc(F)c(n2)CNC(=O)C[C@@H](/C=C/CCSC(=O)CC)OC(=O)[C@H](C(C)C)NC1=O` [Example 47] yielded an IC50 [1] of 0.026 µM, a GI50 [2, 42] of 0.04 µM and a GI50 [3, 43] of 0.06 µM. For the same compound, the GI50 [4] was 0.043 µM, the GI50 [5, 44] was 0.03 µM and the GI50 [6] was 0.029 µM. The GI50 [7] was 0.043 µM, the GI50 [8, 45] was 0.04 µM and the GI50 [9, 46] was 0.08 µM. It also gave a GI50 [10] of 0.024 µM, a GI50 [11] of 0.039 µM and a GI50 [12] of 0.081 µM. The GI50 [13] was 0.056 µM, the GI50 [14, 47] was 0.05 µM and the GI50 [15] was 0.024 µM. It also gave a GI50 [16, 48] of 0.02 µM, a GI50 [17] of 0.061 µM and a GI50 [18, 49] of 0.04 µM. It also gave a GI50 [19] of 0.049 µM, a GI50 [20, 50] of 0.02 µM and a GI50 [21, 51] of 0.02 µM.
With `C/C=C1\NC(=O)c2nc(ccc2F)CCNC(=O)C[C@@H](/C=C/CCSC(C)=O)OC(=O)[C@H](C(C)C)NC1=O` [Compound 103] the IC50 [1] was 0.029 µM, the GI50 [2, 42] was 0.04 µM and the GI50 [3, 43] was 0.02 µM. It also gave a GI50 [4] of 0.025 µM, a GI50 [5, 44] of 0.03 µM and a GI50 [6] of 0.026 µM. For the same compound, the GI50 [7] was 0.055 µM, the GI50 [8, 45] was 0.08 µM and the GI50 [9, 46] was 0.04 µM. The GI50 [10] was 0.047 µM, the GI50 [11] was 0.034 µM and the GI50 [12] was 0.031 µM. It also gave a GI50 [13] of 0.051 µM, a GI50 [14, 47] of 0.03 µM and a GI50 [15] of 0.039 µM. The GI50 [16, 48] was 0.02 µM, the GI50 [17] was 0.051 µM and the GI50 [18, 49] was 0.08 µM. It also gave a GI50 [19] of 0.037 µM, a GI50 [20, 50] of 0.05 µM and a GI50 [21, 51] of 0.02 µM.
